{"source": "patent US20220265700A1", "about": "“METHODS TO PREVENT, INHIBIT OR TREAT INTERVERTEBRAL DISC DEGENERATION” (University of Iowa Research Foundation, priority 2021, published 2022)", "key": {"ERK": {"system": "ERK", "test": "Immunofluorescence staining of phosphorylated ERK", "format": "cell-based, rabbit"}, "JNK": {"system": "JNK", "test": "Immunofluorescence staining of phosphorylated JNK", "format": "cell-based, rabbit"}, "p38": {"system": "p38", "test": "Immunofluorescence staining of phosphorylated p38", "format": "cell-based, rabbit"}, "nucleus pulposus tissues": {"system": "nucleus pulposus tissues", "test": "DHE staining, ex vivo organ culture of transversely cut intervertebral discs", "format": "cell-based, rabbit", "details": "10 mM NAC or […] amobarbital for 24 h after cutting"}, "Nrf2 [1]": {"system": "Nrf2", "test": "Nrf2 staining, ex vivo organ culture of transversely cut intervertebral discs", "format": "cell-based, rabbit", "details": "10 mM NAC or […] amobarbital for 24 h after cutting"}, "nucleus pulposus (NP)": {"system": "nucleus pulposus (NP)", "test": "DHE staining of IVDs exposed to 100 μM tBHP", "format": "cell-based, rabbit", "details": "100 μM tBHP 30 minutes, then 10 mM NAC 24 hours"}, "SOD2 and Nrf2": {"system": "SOD2 and Nrf2", "test": "SOD2 and Nrf2 IHC staining of tBHP-exposed IVDs", "format": "cell-based, rabbit", "details": "100 μM tBHP 30 minutes, then 10 mM NAC 24 hours"}, "nucleus pulposus cells [2]": {"system": "nucleus pulposus cells", "details": "for cell viability: normalized by control"}, "nucleus pulposus cells [3]": {"system": "nucleus pulposus cells", "test": "Mitochondrial ROS production, MitoSOX Red", "format": "cell-based, rabbit"}, "nucleus pulposus cells [4]": {"system": "nucleus pulposus cells", "test": "Mitochondrial membrane potential, JC-1 assay", "format": "cell-based, rabbit", "details": "50 μM tBHP 1 h"}, "rabbit NP cells": {"system": "rabbit NP cells", "format": "cell-based", "details": "exposed to 100 μM tBHP"}, "nucleus pulposus cells [5]": {"system": "nucleus pulposus cells", "details": "100 μM tBHP exposure"}, "[6]": {"system": "human nucleus pulposus cells", "details": "400 μM tBHP for 6 h (Xu et al. 2019); cited from earlier work"}, "[7]": {"system": "rat nucleus pulposus cells", "details": "100 μM tBHP for 24 h (2019 report); cited from earlier work"}, "NP cells": {"system": "NP cells", "test": "TUNEL assay, ex vivo IVD puncture model", "format": "cell-based, rabbit", "details": "7 days; Amo in hydrogel after disc puncture", "source_text": "Overall study design is illustrated in FIG. 15A. A total of 36 rabbit thoracic and lumbar motion segments (T11/L2) including two vertebral bodies and one IVD were obtained from New Zealand White (NZW) rabbit cadavers (approximately 10-months old) without radiographic evidence of trauma by X-ray. Under sterile conditions, the segments were dissected by removing the posterior elements and soft tissues. The discs were punctured using a 20-gauge needle with 3 mm-depth, and the needle was held in place for 5 seconds. Discal injury was confirmed by herniated nucleus pulposus (NP) through the needle hole. After the puncture, 5 μl hydrogel (17% F-127/0.425% HA) with or without 2.5 mM Amo was injected into the NP using a 30-gauge Hamilton syringe with a stopper (Thermo Fisher Scientific, Waltham, Mass., USA). […]\nApoptotic cells in the NP were detected using a terminal deoxynucleotidyl transferase dUTP nick end labelling (TUNEL) assay (Abcam, Cambridge, Mass., USA) according to the manufacturer's instructions. […] Then, the sections were labeled with terminal transferase (TdT) enzyme for 1.5 h, detected with blocking buffer for 30 min, developed with working 3,3′-diaminobenzidine (DAB) solution for 15 min, and counterstained with methyl green for 1.5 min. After scanning images, the number of positive cells in each tissue was counted and normalized by the data from the 2-days intact group."}, "[8]": {"test": "Amo stability in HA hydrogel according to USP guidelines", "format": "physicochemical", "details": "mixed with Gel-One HA hydrogel, data not shown", "source_text": "Amo is primarily applied as a sedative-hypnotic to treat sleep disorder and as a preanesthetic agent."}, "Nrf2 [9]": {"system": "Nrf2", "test": "Nrf2 staining in NP cells under tBHP-induced oxidative stress", "details": "pre-treated with […] amobarbital 2 h, then 50 μM tBHP 1 h"}, "[10]": {"details": "10 mM NAC, […] amobarbital or 20 μM inhibitor, 50 μM tBHP 1 h"}}, "note": "Read-outs that look alike come from different tables or passages of the source."}
{"smiles": "CC(=O)N[C@@H](CS)C(=O)O", "note": "[NAC, N-acetylcysteine]", "values": [{"measurement": "phosphorylation of ERK vs. tBHP", "setting": "ERK; [10]", "result": "inhibited the phosphorylation"}, {"measurement": "phosphorylation of JNK vs. tBHP", "setting": "JNK; [10]", "result": "inhibited the phosphorylation"}, {"measurement": "phosphorylation of p38 vs. tBHP", "setting": "p38; [10]", "result": "inhibited the phosphorylation"}, {"measurement": "DHE dye oxidation (ROS) in injured NP tissues", "setting": "nucleus pulposus tissues", "result": "dramatically reduced dye oxidation"}, {"measurement": "Nrf2 expression in the cytosol compared with injured control group", "setting": "Nrf2 [1]", "result": "approximately 6.8 times"}, {"measurement": "Nrf2 translocation to the nucleus after injury", "setting": "Nrf2 [1]", "result": "prevented"}, {"measurement": "DHE positive cells compared with non-treated control", "setting": "nucleus pulposus (NP)", "result": "dramatic reduction"}, {"measurement": "oxidative damage in NP cells by SOD2 and Nrf2 IHC staining", "setting": "SOD2 and Nrf2", "result": "reduced oxidative damage"}, {"measurement": "protective effect on cell viability (cell death)", "setting": "nucleus pulposus cells [2]; 0.1-10 mM pre-treatment 2 h prior to 50 μM tBHP, until 24 h", "result": "significantly prohibited the cell death"}, {"measurement": "concentration at which no cytotoxicity was exhibited", "setting": "nucleus pulposus cells [2]; New Zealand White, rabbit, 2 h", "result": "lower than 10 mM"}]}
{"smiles": "C[S+]([O-])c1ccc(-c2nc(-c3ccncc3)c(-c3ccc(F)cc3)[nH]2)cc1", "note": "(stereo not shown) [SB203580]", "values": [{"measurement": "phosphorylation of JNK vs. tBHP", "setting": "JNK", "result": "minimized the phosphorylation"}]}
{"smiles": "CC(C)(C)OO", "note": "[tBHP, tert-butyl hydrogen peroxide]", "values": [{"measurement": "superoxide production (MitoSOX Red)", "setting": "nucleus pulposus cells [3]; 25 μM tBHP", "result": "no superoxide production was observed"}, {"measurement": "ratio of J-aggregate form to monomeric form vs. control", "setting": "nucleus pulposus cells [4]", "result": "significantly reduced"}, {"measurement": "phosphorylation of ERK vs. control", "setting": "ERK; 50 μM tBHP 1 h", "result": "significantly phosphorylated"}, {"measurement": "rate of phosphorylated JNK compared with control", "setting": "JNK; 50 μM tBHP 1 h", "result": "approximately 5.9 times"}, {"measurement": "rate of phosphorylated p38 compared with control", "setting": "p38; 50 μM tBHP 1 h", "result": "~9.7", "unit": "times"}, {"measurement": "basal oxygen consumption rate (OCR)", "setting": "rabbit NP cells", "result": "increased"}, {"measurement": "cell viability", "setting": "nucleus pulposus cells [2]; 25 μM tBHP, 1 h", "result": 90.8, "unit": "%"}, {"measurement": "cell viability", "setting": "nucleus pulposus cells [2]; 50 μM tBHP, 1 h", "result": 77.1, "unit": "%"}, {"measurement": "cell loss (viability)", "setting": "nucleus pulposus cells [2]; 100-400 μM tBHP, 1 h", "result": "70.6-72.9%"}, {"measurement": "apoptotic/necrotic cells after tBHP exposure", "setting": "nucleus pulposus cells [5]", "result": "became apoptotic and/or necrotic cells"}, {"measurement": "viability", "setting": "[6]", "result": 54.3, "unit": "%"}, {"measurement": "cell apoptosis relative to control", "setting": "[7]", "result": "approximately 7 times"}]}
{"smiles": "COc1cccc(-c2cc(=O)c3ccccc3o2)c1N", "note": "[PD98059]", "values": [{"measurement": "phosphorylation of ERK vs. tBHP", "setting": "ERK", "result": "minimized the phosphorylation"}]}
{"smiles": "CCC1(CCC(C)C)C(=O)NC(=O)NC1=O", "note": "[amobarbital]", "values": [{"measurement": "MitoSOX-stained cells (imaging)", "setting": "nucleus pulposus cells [3]", "result": "large decrease"}, {"measurement": "phosphorylation of ERK vs. tBHP", "setting": "ERK", "result": "inhibited the phosphorylation"}, {"measurement": "phosphorylation of JNK vs. tBHP", "setting": "JNK", "result": "inhibited the phosphorylation"}, {"measurement": "phosphorylation of p38 vs. tBHP", "setting": "p38", "result": "inhibited the phosphorylation"}, {"measurement": "Nrf2 expression in the cytosol compared with injured control group", "setting": "Nrf2 [1]", "result": "~7.8", "unit": "times"}, {"measurement": "Nrf2 translocation to the nucleus after injury", "setting": "Nrf2 [1]", "result": "prevented"}, {"measurement": "TUNEL-positive (apoptotic) NP cells vs. HG", "setting": "NP cells", "result": "diminished number of cell apoptosis"}, {"measurement": "Amo stability in hydrogel", "setting": "[8]", "result": "stability in human biologic fluids and various conditions"}, {"measurement": "protective effect on cell viability (cell death)", "setting": "nucleus pulposus cells [2]", "result": "significantly prohibited the cell death"}, {"measurement": "Nrf2 expression in the cytosol of NP cells", "setting": "Nrf2 [9]", "result": "close to control"}]}
